# According to patent US20220370470A1 (WisTa Laboratories Ltd., priority 2019, published 2022):
# Where a name gives a salt, the structure may show the parent alone.
# Key:
# [1] = test system: ACh levels in the hippocampus; assay: Hippocampal ACh levels with scopolamine blocking M2/M4 negative feedback receptors; type: in vivo, wild type mice
# [2] = test system: SNARE complex proteins (SNAP25, syntaxin and VAMP2); assay: Immunohistochemistry of SNARE complex proteins, wild-type mice; type: in vivo; design: key: ‘—’ indicates no effect; conditions: LMTM 5 or 15 mg/kg/day alone or following chronic rivastigmine 0.1 or 0.5 mg/kg/day, approximate rounded percentages
# Description: (§1) Wild-type and L1 mice (n=7-16 for each group) were pre-treated with rivastigmine (0.1 or 0.5 mg/kg/day) or memantine (2 or 20 mg/kg/day) or vehicle for 5 weeks by gavage. For the following 6 weeks, LMTM (5 and 15 mg/kg) or vehicle were added to this daily treatment regime, also by gavage. Animals were tested behaviourly during weeks 10 and 11 using a problem solving task in the open field water maze and then sacrificed for immunohistochemical and other tissue analyses.
# (§2) Translating doses from mice to humans requires consideration of a number of factors. […] The higher dose of 15 mg/kg/day is generally required for LMTM to be fully effective in the L1 mouse model (Melis et al., 2015a). […] Tissue sectioned for immunohistochemistry was labelled with antibody and processed using Image J to determine protein expression densitometrically. Data are presented as Z-score transformations without units.
# wild-type mice = assay: Behaviour, problem solving task in the open field water maze, wild-type mice; type: in vivo; conditions: LMTM 5 or 15 mg/kg/day alone or following chronic rivastigmine 0.1 or 0.5 mg/kg/day, approximate rounded percentages
# Description: as §1
# synaptophysin = assay: Immunohistochemistry of synaptophysin, wild-type mice; type: in vivo
# Description: FIG. 1. Treatment effects of LMTM alone or following chronic pretreatment with rivastigmine in wild-type mice on hippocampal levels of acetylcholine (A) or synaptophysin levels measured immunohistochemically as the mean in hippocampus, visual cortex, diagonal band and septum (B). (**, p<0.01; ***, p<0.001).
# as §1, §2
# α-synuclein = assay: Immunohistochemistry of α-synuclein, wild-type mice; type: in vivo; design: key: ‘—’ indicates no effect; conditions: LMTM 5 or 15 mg/kg/day alone or following chronic rivastigmine 0.1 or 0.5 mg/kg/day, approximate rounded percentages
# Description: as §1, §2
# [3] = test system: acetylcholine (ACh) levels in hippocampus; assay: ACh levels in hippocampus, microdialysis probe and HPLC, wild-type mice; type: in vivo
# Description: For measurement of acetylcholine (ACh) levels in hippocampus, animals (wild-type or L1) were treated with LMTM (5 mg/kg/day for 2 weeks) after prior treatment for 2 weeks with or without rivastigmine (0.5 mg/kg/day). Rivastigmine was administered subcutaneously with an Alzet minipump whereas LMTM was administered by oral gavage. Levels of ACh were measured in hippocampus using an implanted microdialysis probe and HPLC analysis of the extracellular fluid.
# Data are presented as group averages and standard errors of mean and were analysed using parametric statistics, with alpha set to 0.05.
# mitochondrial complex IV = assay: Mitochondrial complex IV activity, wild-type mice; type: in vivo; conditions: LMTM 5 or 15 mg/kg/day alone or following chronic rivastigmine 0.1 or 0.5 mg/kg/day, approximate rounded percentages
# Description: as §1
SMILES,"rise in ACh levels ([1]; hippocampus, scopolamine 1 μM added to the perfusion fluid containing 100 nanomolar rivastigmine)",SNARE complex [2],Behaviour (wild-type mice),change in mean synaptophysin levels (synaptophysin; LMTM given against a background of prior treatment with rivastigmine),"increase in mean synaptophysin levels (synaptophysin; hippocampus, visual cortex, diagonal band and septum, LMTM treatment alone) [fold]","increase in ACh levels in scopolamine experiments ([1]; wild type mice, scopolamine blocking M2/M4 negative feedback receptors, 100 nanomolar rivastigmine in perfusion fluid)",α-Synuclein (α-synuclein),reduction in basal ACh levels in hippocampus ([3]; LMTM after prior treatment with rivastigmine (0.5 mg/kg/day)) [%],"increase in basal ACh levels in hippocampus ([3]; LMTM treatment alone (5 mg/kg/day for 2 weeks), significant) [fold]",Mitochondrial complex IV (mitochondrial complex IV)
"CN1[C@@H]2C[C@@H](OC(=O)[C@H](CO)c3ccccc3)C[C@H]1[C@@H]1O[C@@H]12 [scopolamine, reference compound]",3-5 fold,,,,,,,,,
"CN(C)c1ccc2c(c1)Sc1cc(N(C)C)ccc1N2 [LMTM, hydromethylthionine mesylate]",,—,not associated with improvement in spatial recognition memory and —,statistically significant reduction of the same magnitude,3,less than that seen with rivastigmine alone,—,30,2,did not show any increase and —
